The record followed here is the SangsterLogP compilation.

Structures are written as SMILES.

Data set [1] in a line: method code SF-AS, from DOI: 10.1039/p29900001191. The following applies: pH 12.0.
Data set [2] is described as follows: method code SF-AS, from DOI: 10.1016/s0014-827x(98)00024-x, PMID: 9679281.
Data set [3] in a line: method code SF-RC, from DOI: 10.1016/j.bmcl.2015.05.048, PMID: 26073008. Conditions: pH 7.4.
Data set [4] can be described thus: method code SF-AS, from DOI: 10.1016/0223-5234(94)90120-1. The following applies: pH 7.4.
Data set [5] can be described thus: method code SF-RC, from DOI: 10.1021/acs.jmedchem.6b00849, PMID: 27690428. Conditions: pH 7.4.
The nature of data set [6]: method code SF-HPLC, from DOI: 10.1584/jpestics.11.469.
A short description of data set [7]: method code SF-HPLC, from DOI: 10.1016/j.bmc.2011.11.059, PMID: 22189276. The following applies: pH 7.4.
Data set [8] is described as follows: method code SF-AS, from DOI: 10.1135/cccc19831077. The following applies: pH 3.5.
Data set [9] in a line: method code SF-RC, from DOI: 10.1021/jm301492y, PMID: 23214511. The following applies: pH 7.4.
Experiment in data set [10]: not given
The source holds these as a separate data set.

Data set [11] in a line: method code SF, from DOI: 10.1016/j.ijpharm.2011.07.043, PMID: 21839822. Conditions: pH 7.4.
A short description of data set [12]: method code SF-HPLC, from DOI: 10.1016/j.jpba.2011.06.023, PMID: 21782368. The following applies: pH 7.4.
The nature of data set [13]: method code SF-RC, from DOI: 10.1016/j.ejmech.2014.07.070, PMID: 25063945. Conditions: pH 7.4.
Data set [14] in a line: method code SF-RC, from DOI: 10.1016/j.nucmedbio.2005.06.001, PMID: 16253804. The following applies: pH 7.4.
Experiment in data set [15]: not given
The source holds these as a separate data set.

A short description of data set [16]: method code SF, from DOI: 10.1021/jm00167a034, PMID: 2329572. Conditions: pH 7.4.
Data set [17] can be described thus: method code SF-AS, from Zsuzsa, H.; Nora, K. (1979). Study on the partition coefficient of acetanilides. Nehezvegyp. Kut. Intez. Kozl., 8, 139-146.
Data set [18] in a line: method code RP-HPLC, from DOI: 10.1021/jm970292n, PMID: 9371243.
Data set [19] in a line: method code SF-RC, from DOI: 10.1016/j.bmc.2015.06.036, PMID: 26145817. The following applies: pH 7.4.
A short description of data set [20]: method code SF-RC, from DOI: 10.1021/jm201482p, PMID: 22339166. Conditions: pH 6.8.
For data set [21] the following is noted: pH 7.4.
Data set [22] in a line: method code SF-AS, from DOI: 10.1002/ps.2780140302. The following applies: pH 5.0.
Experiment in data set [23]: not given
The source holds these as a separate data set.

Data set [24] can be described thus: method code SF, from DOI: 10.1016/j.ejmech.2012.08.015, PMID: 22960698.
Data set [25] can be described thus: method code SF-AS, from DOI: 10.1016/s0022-3565(25)32601-7, PMID: 7194909.
Experiment in data set [26]: not given
The source holds these as a separate data set.

The nature of data set [27]: method code SF-HPLC, from DOI: 10.1039/p29890001935.
A short description of data set [28]: method code SF-RC, from DOI: 10.1002/syn.21606, PMID: 22927303. The following applies: pH 7.4.

Usually logD stands for the decadic logarithm of the distribution of all forms, ionised or not, between an organic phase and buffer at a given pH. `N#Cc1cc(-c2ccccc2)nnc1NCCN1CCOCC1` had a logD in data set [1] of 1.89.

Broadly, the logP is a log measure of how a compound divides between an organic and an aqueous phase. The low end stands for a more hydrophilic compound, the high end for a more lipophilic compound. With `c1ccc(Nc2nnc(Cn3ccc4ccccc43)s2)cc1`, the logP in [2] was determined as 3.73.

With `COc1ccc(/C=C/c2cc(=O)c3cc(I)ccc3o2)cc1`, in [3], the logD turned out to be 2.15.

For the compound `S=C1SCN(CCc2ccccc2)CN1Cc1ccccc1`, in data set [4], the logD came to 4.7.

With `N#Cc1ccc(N(Cc2ccc(I)cc2)c2cncnc2)cc1`, in data set [5], the logD was found to be 2.16.

Compound `CCOC(=O)C(C)Oc1ccc(Oc2cnc3cc(C)ccc3n2)cc1` (stereo not drawn) gave a logP in [6] of 4.11.

For `CCCCCCOC(=O)NCCCC(C)Nc1cc(OC)cc2cccnc12` (stereo not drawn), the logD in data set [7] is 3.02.

`COc1cc(CC(=O)O)ccc1OCc1ccccc1` gave a logD in data set [8] of 2.59.

For the compound `CO[C@@]12CCC(=O)[C@@H]3Oc4c(O)ccc5c4[C@@]31CCN(C)[C@@H]2C5`, the logP stood at 0.6.

Compound `CO[C@@]12CCC(=O)[C@]3(C)Oc4c(O)ccc5c4[C@@]31CCN(C)[C@@H]2C5` yielded a log partition coefficient (logP) of 1.12.

As for `S=C1SCN(CCc2ccccc2)CN1CCc1ccccc1`, the logD in data set [4] came to 5.3.

In data set [9], `O=C(NC1CCCCC1)c1ccc(O)c(-c2ccccc2)c1` returned a logD of 2.85.

`CC(n1ccnc1)C(O)(c1ccc(F)cc1)c1ccc(F)cc1` (stereo not drawn): the logP in [10] came to 3.13.

`CCCCCCCCCCNC(=O)c1ccccc1O` showed a logD in data set [11] of 4.53.

`CCOC(=O)COC(=O)NCCCC(C)Nc1cc(OC)cc2cccn12` (stereo not drawn) gave a logD in data set [7] of 3.09.

Regarding `COC(=O)CC(CNC(=O)OC(C)(C)C)c1ccc(Cl)cc1` (stereo not drawn), in [12], the logD was determined as 1.5.

Compound `CNc1ccc(/C=C/C(=O)/C=C/c2ccc(F)cc2)cc1` had a logD in data set [13] of 2.69.

With `c1ccc(Cc2cc(-c3ccccc3)nnc2NCCN2CCOCC2)cc1`, in [1], the logD stood at 3.65.

`CNc1ccc(C=Cc2ccc(OCCOCCF)cc2)cc1` gave a logD in [14] of 2.52.

For `Cc1ccc(OP(=O)(Oc2ccccc2)Oc2ccccc2)cc1`, the logP in [15] stood at 4.4.

Compound `Cc1cn([C@H]2C[C@H](N=[N+]=[N-])[C@@H](COC(=O)c3cccnc3)O2)c(=O)[nH]c1=O` yielded a logD in [16] of 0.2.

For `O=C(CN(C(=O)C(Cl)Cl)c1ccccc1)Nc1ccccc1`, in data set [17], the logP worked out at 2.96.

In turn, `O=C1c2c(O)cccc2C(c2ccccc2)c2cccc(O)c21` yielded a logP in [18] of 3.81.

In data set [19], `Cc1cc(N(C)CCCCF)n2nc(C)c(-c3ccc(Cl)cc3Cl)c2n1` registered a logD of 2.75.

In [20], `O=c1[nH]c(=O)n([C@H]2C[C@H](O)[C@@H](CO[P@]3(=O)OCc4ccccc4O3)O2)cc1I` came in with a logD of 0.65.

Compound `Cc1cn(C2CC(N=[N+]=[N-])C(COC(=O)C(N)Cc3ccc(O)cc3)O2)c(=O)[nH]c1=O` (stereo not drawn) displayed a logD in data set [16] of -0.03.

`Cc1ccc(C)n1Nc1ccc(N2C[C@@H](C)O[C@@H](C)C2)nn1`: the logD in [21] was 2.59.

The compound `CCOC(=O)CC(CNC(=O)OC(C)(C)C)c1ccc(Cl)cc1` (stereo not drawn) showed a logD in data set [12] of 2.

For the compound `Cc1ccc(C)n1NC(=O)Cc1ccc(N2CCOCC2)nn1`, the logD in [21] came to 1.64.

The compound `O=C(O)Cc1ccc(OCCc2ccccc2)c(Cl)c1` gave a logD in data set [8] of 3.53.

In turn, `OC(c1ccccc1)(c1cncnc1)c1ccc(Cl)cc1Cl` (stereo not drawn) displayed a logD in data set [22] of 2.56.

As to `O=C1CC[C@@]2(O)[C@H]3Cc4ccc(O)c5c4[C@@]2(CCN3CC2CC2)[C@H]1O5`, the logP in data set [23] amounted to 1.12.

For the compound `Cc1cccc2c1O[P@](=O)(OC[C@H]1O[C@@H](n3cc(I)c(=O)[nH]c3=O)C[C@@H]1O)OC2`, in data set [20], the logD is 0.85.

Turning to `CN(C)c1ccc(/C=C/C(=O)/C=C/c2ccc(F)cc2)cc1`, the logD in [13] amounted to 3.89.

On to `CNc1ccc(C=Cc2ccc(OCCOCCOCCF)cc2)cc1`, for which, in [14], the logD is 2.41.

Turning to `N#Cc1ccc(N(Cc2ccc(I)cc2)n2ccnc2)cc1`, the logD in data set [5] was 1.59.

In [17], `CC(=O)N(CC(=O)Nc1ccccc1)c1ccccc1` had a logP of 2.01.

In turn, `COc1ccc(C(=O)CC2OC(=O)c3ccccc32)cc1OC` (stereo not drawn) yielded a log partition coefficient (logP) in data set [24] of 2.61.

In data set [2], `Cc1[nH]c2ccccc2c1Cc1n[nH]c(=S)n1-c1cccc2ccccc12` displayed a logP of 3.02.

On to `O=c1cc(/C=C/c2ccc(O)cc2)oc2ccc(I)cc12`, for which the logD in data set [3] came to 1.87.

In data set [22], `OC(c1ccc(F)cc1)(c1cncnc1)c1ccccc1Cl` (stereo not drawn) had a logD of 2.2.

On to `O=C(CC1OC(=O)c2ccccc21)c1ccccc1` (stereo not drawn), for which the logP in data set [24] turned out to be 2.96.

In [25], `OC1(c2ccc(Cl)cc2)c2ccccc2C2=NCCCCN21` (stereo not drawn) had a logP of 1.15.

`CN(SN(C)C(=O)Oc1cccc2ccccc12)C(=O)Oc1ccc2c(c1)OCO2` came in with a logP in data set [26] of 2.83.

In data set [26], `Cc1cccc(OC(=O)N(C)SN(C)C(=O)Oc2ccc3c(c2)OCO3)c1` showed a logP of 2.66.

Compound `C=CCN1CC[C@]23c4c5ccc(O)c4O[C@H]2C(=O)CC[C@@]3(O)[C@H]1C5` showed a logP in data set [23] of 1.53.

Compound `O=P(Oc1ccccc1)(Oc1ccccc1)Oc1ccccc1` registered a logP in [15] of 3.9.

For `OC1(c2ccc(Cl)cc2)c2ccccc2C2=NCCCN21` (stereo not drawn), in data set [25], the logP was 1.41.

`CCOC(=O)C(C)Oc1ccc(Oc2cnc3cc(F)ccc3n2)cc1` (stereo not drawn) came in with a logP in data set [6] of 3.65.

In data set [27], `Cc1ccccc1C1OCC2ON=C(c3ccccc3)C2CO1` (stereo not drawn) came in with a logP of 2.72.

The compound `CCc1cc2cc(C(=O)C3CCC(OC)CC3)ccc2nc1C` (stereo not drawn) came in with a logD in data set [28] of 3.38.

`COc1cccc2cc3cccc(OC)c3c(OC)c12`: the logP in data set [18] was 4.1.

`CCCCCCCCCCCCNC(=O)c1ccccc1O` gave a logD in data set [11] of 5.37.

In [28], `CCc1cc2cc(C(=O)C3CCC(OC)CC3)ccc2nc1F` (stereo not drawn) had a logD of 3.54.

In data set [9], `CCCCCCNC(=O)c1ccc(O)c(-c2ccccc2)c1` gave a logD of 3.67.

`CC(=O)Oc1ccc(C(O)(Cn2ccnc2)c2ccc(-c3ccncc3)cc2)cc1` (stereo not drawn) came in with a logP in [10] of 2.61.

Consider `Cc1cc(N(C)CCOCCF)n2nc(C)c(-c3ccc(Cl)cc3Cl)c2n1`, for which the logD in data set [19] came out at 2.3.

For `FC(F)(F)c1ccccc1C1OCC2ON=C(c3ccccc3)C2CO1` (stereo not drawn), the logP in data set [27] came out at 4.31.
